pEC50: −log10 of the molar value. Where “and” joins values, the source holds several entries; their conditions need not be identical. Equal entries are not always repeated. Entries after “also recorded” stand apart in the source; their conditions may differ. Where no end group is shown, it is not given here.
Tests used:
anti-rPA serum IgG = system: anti-rPA serum IgG; design: species or system C3H/HeN female mice; settings: mouse, in vivo
anthrax lethal toxin = system: anthrax lethal toxin; design: species or system C3H/HeN female mice; settings: mouse, in vivo
MC/9 mast cells = assay type: cell-based, murine; design: MCD10: concentration of peptide necessary to induce degranulation of 10% of mast cells: unit not given here
anti-PA IgG = system: anti-PA IgG; design: species or system Female C3H/HeN mice; settings: mouse, in vivo
anti-WNV IgG = assay type: in vivo, Female BALB/c mice; settings: nasal, days 0, 7 and 21, WNV antigen 1 μg + 0.25 or 1.25 nmoles peptide; ANOVA p<0.05
anti-rPA IgG = system: anti-rPA IgG; design: species or system female C3H/HeN mice; settings: mouse, in vivo

| Substance | serum anti-PA IgG geometric means titers (GMT), adjuvant activity (anti-rPA serum IgG) | lethal toxin neutralizing antibody response in serum (anthrax lethal toxin) | % MC/9 Degranulation (MC/9 mast cells) | adjuvant activity as determined by serum anti-PA IgG endpoint titers (anti-PA IgG) | % Mast Cell Degranulation (MC/9 mast cells) | MCD10: concentration of peptide necessary to induce degranulation of 10% of mast cells (MC/9 mast cells) | mast cell degranulation (β-hexosaminidase released into the culture medium) (MC/9 mast cells) | pEC50 (MC/9 mast cells; read-out: MCD50: concentration of peptide necessary to induce degranulation of 50% of mast cells) | Anti-WNV IgG titers in sera on day 28, versus antigen alone (anti-WNV IgG) | serum anti-rPA IgG titers, difference between the -OH and -NH2 forms (anti-rPA IgG) | serum anti-rPA IgG titer versus mice immunized with rPA alone (anti-rPA IgG) |
| --- | --- | --- | --- | --- | --- | --- | --- | --- | --- | --- | --- |
| INLKAKAALAKKLL-OH [Mastoparan 17] | did not provide detectable adjuvant activity | did not induce lethal toxin neutralizing responses greater than those detected in mice immunized with rPA alone | 0% | did not provide adjuvant activity | – | – | – | – | – | – | – |
| INLKALAALAKALL [Mastoparan 7, INLKALAALAKALL—NH2, reference compound] | significantly increased | neutralized anthrax lethal toxin; also recorded: significantly increased versus all other groups | 50.25% and 80.20% | – | 72.33% and 54.35% and 39.12% | 6.31 | induced mast cell degranulation | 4.74 | significantly greater | no significant difference | – |
| INLKALAALAKKIL-NH2 [Mastoparan] | significantly increased | neutralized anthrax lethal toxin; also recorded: significantly increased versus all other groups | 66.60% | provided adjuvant activity | – | 33.07 | induced mast cell degranulation | – | – | – | significantly greater |
